How the values were obtained:
[1] = system: LB1158 CD4+ clone 22; assay: IFN-γ production by CD4+ clone 22 stimulated with peptide- or protein-pulsed EBV-B cells; assay type: cell-based, human; settings: for recognition of short peptide by clone 22: conclusion from Table V; for IFN-γ production by clone 22: HLA-DR13 EBV-B cells
Description: (§1) In order to confirm the efficacy of this protocol, dendritic cells were fed with the MAGE-3 protein, using conditions described above, to stimulate autologous CD4^+ T lymphocytes from hemochromatosis patient LB1158 or from melanoma patient 7002. After four restimulations, the specific production of IFN-γ by an aliquot of each of the microcultures stimulated with the autologous EBV-B cells loaded with MAGE-A3 were tested on day 35 for patient LB1158 and day 37 for patient 7002. For each individual, one positive microculture was cloned using autologous EBV-B cells as stimulating cells, either retrotransduced with MFG Ii MAGE-A3 for LB1158, or fed with protein MAGE-A3 for patient 7002. […] Specifically, autologous EBV-B cells were incubated for 20 h in the presence of 20 μg/ml of recombinant His-MAGE-A3 protein. Clone 22 (2500 cells) was incubated overnight with 5000 MAGE-A3 loaded EBV-B cells in round botton microwells in the presence or absence of monoclonal antibodies which recognize HLA-A,B,C (W6/32) or HLA-DR (2B6). IFN-γ secretion was measured after 20 h by ELISA (FIG. 15A).
(§2) Peptides corresponding to parts of MAGE-A3 (e.g., MAGE107-122, MAGE111-126, MAGE115-130, MAGE119-134) were tested for recognition by clone 2 and 22. HLA-DR13 EBV-B cells were pulsed for 2 h with different concentrations of these peptides. Clones 2 and 37 (2500 cells) were incubated with 5000 peptide pulsed cells in round-bottomed microwells for 20 h and assayed for IFN-γ production.
(§3) Autologous or allogeneic EBV-B cells were pulsed for 2 h with 1 μg/ml MAGE-A3119-134 peptide, and then washed. Clones 2 or 22 were incubated with 5000 peptide-pulsed EBV-B cells in round-bottomed microwells for 20 h and the clones' reactivity to the EBV-B cells was measured by ELISA as IFN-γ secretion. Experiments were performed in triplicate.
(§4) Unlike HLA-class I-restricted peptides, class II-restricted peptides usually vary in length and tolerate extensions at both the amino and carboxy termini, because they are not fixed by their ends in the groove. It is therefore difficult to define precisely the length of the antigenic peptide. Therefore a large number of MAGE-A3 peptides were tested at different concentrations (Tables IV and V). […] 2500 cells of clone 37 were then cocultured for 20 h in round-bottomed microwells with 5000 peptide-pulsed cells. IFN-γ released in the supernatant of the cocultures was measured in an ELISA assay. The experiments were performed in triplicate. […] Clones 2 and 22 (2500 cells) were then cocultured for 20 h in round-bottomed microwells with 5000 peptide-pulsed cells. IFN-γ released in the supernatant of the cocultures was measured in an ELISA assay. The experiments was performed twice in duplicates.

[2] = system: 7002 CD4+ clone 2; assay: IFN-γ production by CD4+ clone 2 stimulated with peptide- or protein-pulsed EBV-B cells; assay type: cell-based, human; settings: for recognition of short peptide by clone 2: conclusion from Table V; for IFN-γ production by clone 2: HLA-DR13 EBV-B cells
Description: as §1, §2, §3, §4

[3] = peptide concentration 100 ng/ml
[4] = peptide concentration 300 ng/ml
[5] = peptide concentration 1000 ng/ml

FLLLKYRAREPVT (listed as Homo sapiens) was tested, and the “recognition of short peptide by clone 22” value [1] was “well recognized”, the “IFN-γ production by clone 22” value ([1]; peptide concentration 1 ng/ml) was 291 pg/mL and the “IFN-γ production by clone 22” value ([1]; peptide concentration 3 ng/ml) was 584 pg/mL. For the same molecule, the “IFN-γ production by clone 22” value ([1]; peptide concentration 10 ng/ml) was 1099 pg/mL, the “IFN-γ production by clone 22” value ([1]; peptide concentration 30 ng/ml) was 1635 pg/mL and the “IFN-γ production by clone 22” value [1, 3] was 1510 pg/mL. For the same molecule, the “IFN-γ production by clone 22” value [1, 4] was 1834 pg/mL, the “IFN-γ production by clone 22” value [1, 5] was 2183 pg/mL and the “recognition of short peptide by clone 2” value [2] was “well recognized”. For the same molecule, the “IFN-γ production by clone 2” value ([2]; peptide concentration 1 ng/ml) was 114 pg/mL, the “IFN-γ production by clone 2” value ([2]; peptide concentration 3 ng/ml) was 370 pg/mL and the “IFN-γ production by clone 2” value ([2]; peptide concentration 10 ng/ml) was 1437 pg/mL. The “IFN-γ production by clone 2” value ([2]; peptide concentration 30 ng/ml) was 2003 pg/mL, the “IFN-γ production by clone 2” value [2, 3] was 2951 pg/mL and the “IFN-γ production by clone 2” value [2, 4] was 2860 pg/mL. The “IFN-γ production by clone 2” value [2, 5] was 3079 pg/mL.

For FLLLKYRAREPVTK (listed as Homo sapiens), the “IFN-γ production by clone 22” value ([1]; peptide concentration 1 ng/ml) was 0 pg/mL, the “IFN-γ production by clone 22” value ([1]; peptide concentration 3 ng/ml) was 0 pg/mL and the “IFN-γ production by clone 22” value ([1]; peptide concentration 10 ng/ml) was 1 pg/mL. The “IFN-γ production by clone 22” value ([1]; peptide concentration 30 ng/ml) was 10 pg/mL, the “IFN-γ production by clone 22” value [1, 3] was 28 pg/mL and the “IFN-γ production by clone 22” value [1, 4] was 115 pg/mL. For the same molecule, the “IFN-γ production by clone 22” value [1, 5] was 453 pg/mL, the “IFN-γ production by clone 2” value ([2]; peptide concentration 1 ng/ml) was 0 pg/mL and the “IFN-γ production by clone 2” value ([2]; peptide concentration 3 ng/ml) was 0 pg/mL. For the same molecule, the “IFN-γ production by clone 2” value ([2]; peptide concentration 10 ng/ml) was 0 pg/mL, the “IFN-γ production by clone 2” value ([2]; peptide concentration 30 ng/ml) was 0 pg/mL and the “IFN-γ production by clone 2” value [2, 3] was 85 pg/mL. For the same molecule, the “IFN-γ production by clone 2” value [2, 4] was 0 pg/mL and the “IFN-γ production by clone 2” value [2, 5] was 0 pg/mL.

“FLLLKYRAREPVTKA (listed as Homo sapiens)” was tested, and the “IFN-γ production by clone 22” value ([1]; peptide concentration 1 ng/ml) was 283 pg/mL, the “IFN-γ production by clone 22” value ([1]; peptide concentration 3 ng/ml) was 1294 pg/mL and the “IFN-γ production by clone 22” value ([1]; peptide concentration 10 ng/ml) was 1619 pg/mL. The “IFN-γ production by clone 22” value ([1]; peptide concentration 30 ng/ml) was 1775 pg/mL, the “IFN-γ production by clone 22” value [1, 3] was 1854 pg/mL and the “IFN-γ production by clone 22” value [1, 4] was 1965 pg/mL. The “IFN-γ production by clone 22” value [1, 5] was 2180 pg/mL, the “IFN-γ production by clone 2” value ([2]; peptide concentration 1 ng/ml) was 245 pg/mL and the “IFN-γ production by clone 2” value ([2]; peptide concentration 3 ng/ml) was 865 pg/mL. For the same molecule, the “IFN-γ production by clone 2” value ([2]; peptide concentration 10 ng/ml) was 1753 pg/mL, the “IFN-γ production by clone 2” value ([2]; peptide concentration 30 ng/ml) was 2713 pg/mL and the “IFN-γ production by clone 2” value [2, 3] was 2871 pg/mL. For the same molecule, the “IFN-γ production by clone 2” value [2, 4] was 3354 pg/mL and the “IFN-γ production by clone 2” value [2, 5] was 3314 pg/mL.

With KYRAREPVTKAE (listed as Homo sapiens) the “IFN-γ production by clone 22” value ([1]; peptide concentration 1 ng/ml) was 0 pg/mL, the “IFN-γ production by clone 22” value ([1]; peptide concentration 3 ng/ml) was 5 pg/mL and the “IFN-γ production by clone 22” value ([1]; peptide concentration 10 ng/ml) was 0 pg/mL. For the same molecule, the “IFN-γ production by clone 22” value ([1]; peptide concentration 30 ng/ml) was 5 pg/mL, the “IFN-γ production by clone 22” value [1, 3] was 16 pg/mL and the “IFN-γ production by clone 22” value [1, 4] was 135 pg/mL. The “IFN-γ production by clone 22” value [1, 5] was 542 pg/mL, the “IFN-γ production by clone 2” value ([2]; peptide concentration 1 ng/ml) was 0 pg/mL and the “IFN-γ production by clone 2” value ([2]; peptide concentration 3 ng/ml) was 0 pg/mL. The “IFN-γ production by clone 2” value ([2]; peptide concentration 10 ng/ml) was 0 pg/mL, the “IFN-γ production by clone 2” value ([2]; peptide concentration 30 ng/ml) was 0 pg/mL and the “IFN-γ production by clone 2” value [2, 3] was 0 pg/mL. The “IFN-γ production by clone 2” value [2, 4] was 0 pg/mL and the “IFN-γ production by clone 2” value [2, 5] was 50 pg/mL.

In the case of LKYRAREPVTKAE (listed as Homo sapiens), the “IFN-γ production by clone 22” value ([1]; peptide concentration 1 ng/ml) is reported as 0 pg/mL, the “IFN-γ production by clone 22” value ([1]; peptide concentration 3 ng/ml) is reported as 25 pg/mL and the “IFN-γ production by clone 22” value ([1]; peptide concentration 10 ng/ml) is reported as 223 pg/mL. For the same molecule, the “IFN-γ production by clone 22” value ([1]; peptide concentration 30 ng/ml) was 567 pg/mL, the “IFN-γ production by clone 22” value [1, 3] was 1029 pg/mL and the “IFN-γ production by clone 22” value [1, 4] was 1475 pg/mL. The “IFN-γ production by clone 22” value [1, 5] was 2004 pg/mL, the “IFN-γ production by clone 2” value ([2]; peptide concentration 1 ng/ml) was 0 pg/mL and the “IFN-γ production by clone 2” value ([2]; peptide concentration 3 ng/ml) was 0 pg/mL. For the same molecule, the “IFN-γ production by clone 2” value ([2]; peptide concentration 10 ng/ml) was 79 pg/mL, the “IFN-γ production by clone 2” value ([2]; peptide concentration 30 ng/ml) was 386 pg/mL and the “IFN-γ production by clone 2” value [2, 3] was 1324 pg/mL. For the same molecule, the “IFN-γ production by clone 2” value [2, 4] was 2544 pg/mL and the “IFN-γ production by clone 2” value [2, 5] was 2755 pg/mL.

LLKYRAREPVTKAE (listed as Homo sapiens) was tested, and the “recognition of short peptide by clone 22” value [1] was “well recognized”, the “IFN-γ production by clone 22” value ([1]; peptide concentration 1 ng/ml) was 262 pg/mL and the “IFN-γ production by clone 22” value ([1]; peptide concentration 3 ng/ml) was 638 pg/mL. The “IFN-γ production by clone 22” value ([1]; peptide concentration 10 ng/ml) was 1073 pg/mL, the “IFN-γ production by clone 22” value ([1]; peptide concentration 30 ng/ml) was 1651 pg/mL and the “IFN-γ production by clone 22” value [1, 3] was 1736 pg/mL. For the same molecule, the “IFN-γ production by clone 22” value [1, 4] was 1826 pg/mL, the “IFN-γ production by clone 22” value [1, 5] was 2225 pg/mL and the “recognition of short peptide by clone 2” value [2] was “well recognized”. The “IFN-γ production by clone 2” value ([2]; peptide concentration 1 ng/ml) was 40 pg/mL, the “IFN-γ production by clone 2” value ([2]; peptide concentration 3 ng/ml) was 303 pg/mL and the “IFN-γ production by clone 2” value ([2]; peptide concentration 10 ng/ml) was 1419 pg/mL. For the same molecule, the “IFN-γ production by clone 2” value ([2]; peptide concentration 30 ng/ml) was 2012 pg/mL, the “IFN-γ production by clone 2” value [2, 3] was 2918 pg/mL and the “IFN-γ production by clone 2” value [2, 4] was 3186 pg/mL. For the same molecule, the “IFN-γ production by clone 2” value [2, 5] was 3078 pg/mL.

“LLLKYRAREPVTKAE (listed as Homo sapiens)” was tested, and the “IFN-γ production by clone 22” value ([1]; peptide concentration 1 ng/ml) was 718 pg/mL, the “IFN-γ production by clone 22” value ([1]; peptide concentration 3 ng/ml) was 965 pg/mL and the “IFN-γ production by clone 22” value ([1]; peptide concentration 10 ng/ml) was 1440 pg/mL. The “IFN-γ production by clone 22” value ([1]; peptide concentration 30 ng/ml) was 1832 pg/mL, the “IFN-γ production by clone 22” value [1, 3] was 1679 pg/mL and the “IFN-γ production by clone 22” value [1, 4] was 1739 pg/mL. For the same molecule, the “IFN-γ production by clone 22” value [1, 5] was 2214 pg/mL, the “IFN-γ production by clone 2” value ([2]; peptide concentration 1 ng/ml) was 169 pg/mL and the “IFN-γ production by clone 2” value ([2]; peptide concentration 3 ng/ml) was 639 pg/mL. The “IFN-γ production by clone 2” value ([2]; peptide concentration 10 ng/ml) was 2028 pg/mL, the “IFN-γ production by clone 2” value ([2]; peptide concentration 30 ng/ml) was 2532 pg/mL and the “IFN-γ production by clone 2” value [2, 3] was 2857 pg/mL. For the same molecule, the “IFN-γ production by clone 2” value [2, 4] was 3124 pg/mL and the “IFN-γ production by clone 2” value [2, 5] was 3033 pg/mL.

B1: MAGE-A1 recombinant protein: MAGE-A1 recombinant protein used to load autologous EBV-B cells (protein, UniProt P43355 1-309, looked up)
Melanoma-associated antigen 1: MSLEQRSLHCKPEEALEAQQEALGLVCVQAATSSSSPLVLGTLEEVPTAGSTDPPQSPQGASAFPTTINFTRQRQPSEGSSSREEEGPSTSCILESLFRAVITKKVADLVGFLLLKYRAREPVTKAEMLESVIKNYKHCFPEIFGKASESLQLVFGIDVKEADPTGHSYVLVTCLGLSYDGLLGDNQIMPKTGFLIIVLVMIAMEGGHAPEEEIWEELSVMEVYDGREHSAYGEPRKLLTQDLVQEKYLEYRQVPDSDPARYEFLWGPRALAETSYVKVLEYVIKVSARVRFFFPSLREAALREEEEGV
B1 was tested, and the “stimulation of clone 22 by protein-loaded autologous EBV-B cells” value [1] was “stimulated” and the “stimulation of clone 2 by protein-loaded autologous EBV-B cells” value [2] was “stimulated”.
